# From US20230151049A1, “Compounds Useful in HIV Therapy” (priority 2020, published 2023)
# Assay: in vivo
# Conditions: single IM Example 43A 60 mg/kg
# Method in brief: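 Three male Wistar Han rats (200-250 g), not fasted, received a single intramuscular gastrocnemius injection of prodrug suspension at 20 mg/kg EFdA equivalent. Tail-vein blood was taken into NaF/Na2EDTA, mixed 1:1 with 100 mM ammonium acetate pH 4, frozen, and analysed by LC-MS/MS.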
structure (smiles),measurement,setting,value
"C#C[C@]1(COP(=O)(N[C@@H](Cc2ccccc2)C(=O)OCCCCCCCCCCCCCCCCCCCC)Oc2ccccc2)O[C@@H](n2cnc3c(N)nc(F)nc32)C[C@@H]1O (single isomer, unassigned) [Example 43A]",Mean concentration of EFdA,day 1,"BQL (BQL = below quantification limit, 0.3 ng/mL for both)"
same,Mean concentration of EFdA,day 7,"BQL (BQL = below quantification limit, 0.3 ng/mL for both)"
same,Mean concentration of EFdA,day 14,"BQL (BQL = below quantification limit, 0.3 ng/mL for both)"
same,Mean concentration of EFdA,day 21,"BQL (BQL = below quantification limit, 0.3 ng/mL for both)"
same,Mean concentration of EFdA,day 28,"BQL (BQL = below quantification limit, 0.3 ng/mL for both)"
same,Mean concentration of EFdA,day 35,"BQL (BQL = below quantification limit, 0.3 ng/mL for both)"
same,Mean concentration of EFdA,day 42,"BQL (BQL = below quantification limit, 0.3 ng/mL for both)"
same,Mean concentration of EFdA,day 49,"BQL (BQL = below quantification limit, 0.3 ng/mL for both)"
same,Mean concentration of EFdA,day 56,"BQL (BQL = below quantification limit, 0.3 ng/mL for both)"
same,Mean concentration of EFdA,day 63,"BQL (BQL = below quantification limit, 0.3 ng/mL for both)"
same,Mean concentration of EFdA,day 70,"BQL (BQL = below quantification limit, 0.3 ng/mL for both)"
same,Mean concentration of EFdA,day 77,"BQL (BQL = below quantification limit, 0.3 ng/mL for both)"
same,Mean concentration of EFdA,day 84,"BQL (BQL = below quantification limit, 0.3 ng/mL for both)"
same,concentration at 1 day,"male, Wistar Han, rat, in vivo, day 1, read-out: Mean concentration of Example 43A",89.3 ng/mL
same,concentration at 7 day,"male, Wistar Han, rat, in vivo, day 7, read-out: Mean concentration of Example 43A",25.4 ng/mL
same,concentration at 14 day,"male, Wistar Han, rat, in vivo, day 14, read-out: Mean concentration of Example 43A",22.7 ng/mL
same,concentration at 21 day,"male, Wistar Han, rat, in vivo, day 21, read-out: Mean concentration of Example 43A",22.1 ng/mL
same,concentration at 28 day,"male, Wistar Han, rat, in vivo, day 28, read-out: Mean concentration of Example 43A",11.3 ng/mL
same,concentration at 35 day,"male, Wistar Han, rat, in vivo, day 35, read-out: Mean concentration of Example 43A",12.7 ng/mL
same,concentration at 42 day,"male, Wistar Han, rat, in vivo, day 42, read-out: Mean concentration of Example 43A",10.4 ng/mL
same,concentration at 49 day,"male, Wistar Han, rat, in vivo, day 49, read-out: Mean concentration of Example 43A",7.22 ng/mL
same,concentration at 56 day,"male, Wistar Han, rat, in vivo, day 56, read-out: Mean concentration of Example 43A",8.67 ng/mL
same,concentration at 63 day,"male, Wistar Han, rat, in vivo, day 63, read-out: Mean concentration of Example 43A",12.5 ng/mL
same,concentration at 70 day,"male, Wistar Han, rat, in vivo, day 70, read-out: Mean concentration of Example 43A",13.1 ng/mL
same,concentration at 77 day,"male, Wistar Han, rat, in vivo, day 77, read-out: Mean concentration of Example 43A",13.5 ng/mL
same,concentration at 84 day,"male, Wistar Han, rat, in vivo, day 84, read-out: Mean concentration of Example 43A",7.94 ng/mL
